Results taken from ChEMBL document CHEMBL1141293, “Cassane furanoditerpenoids from the seed kernels of Caesalpinia bonduc from Thailand” (J Nat Prod, 2007).
Active and inactive are the calls of the source. The calls are words filed in the database; no cut-off is given here.

Tests used:
Plasmodium falciparum [1] = assay: Antimalarial activity against multidrug-resistant Plasmodium falciparum K1 by microculture radioisotope assay; assay type: functional, organism-based
KATO3 = assay: Cytotoxicity against human KATO3 cells at 10 ug/ml by MTT assay; assay type: functional, cell-based
SW-620 = assay: Cytotoxicity against human SW620 cells at 10 ug/ml by MTT assay; assay type: functional, cell-based
HepG2 = assay: Cytotoxicity against human HepG2 cells at 10 ug/ml by MTT assay; assay type: functional, cell-based
CHAGO = assay: Cytotoxicity against human CHAGO cells at 10 ug/ml by MTT assay; assay type: functional, cell-based
BT-474 = assay: Cytotoxicity against human BT474 cells at 10 ug/ml by MTT assay; assay type: functional, cell-based
Plasmodium falciparum [2] = assay: Antimalarial activity against multidrug-resistant Plasmodium falciparum K1 at 10 uM by microculture radioisotope assay; assay type: functional, organism-based

Row | SMILES | IC50 (Plasmodium falciparum [1]) [µM] | Activity (KATO3) | Activity (SW-620) | Activity (HepG2) | Activity (CHAGO) | Activity (BT-474) | Activity (Plasmodium falciparum [2])
1 | C=C1c2ccoc2C[C@H]2[C@H]1[C@@H](O)[C@H](OC(C)=O)[C@@]1(O)C(C)(C)CC[C@H](OC(C)=O)[C@]21C [BONDUCELLPIN G] | 3.8 | Not toxic | Not toxic | Not toxic | Not toxic | Not toxic | –
2 | COC(=O)[C@@H]1c2ccoc2C[C@H]2[C@H]1[C@@H](OC(C)=O)[C@H](O)[C@@]1(O)C(C)(C)CCC(=O)[C@]21C [BONDUCELLPIN E] | 1.6 | Not toxic | Not toxic | Not toxic | Not toxic | Not toxic | –
3 | C=C1c2ccoc2C[C@H]2[C@H]1[C@@H](OC(C)=O)[C@H](O)[C@@]1(O)C(C)(C)CCC(=O)[C@]21C [BONDUCELLPIN F] | 5.8 | Not toxic | Not toxic | Not toxic | Not toxic | Not toxic | –
4 | CC(=O)O[C@@H]1[C@@H]2[C@H](Cc3occc3[C@@]2(C)O)[C@@]2(C)C(=O)CCC(C)(C)[C@]2(O)[C@H]1OC(C)=O | – | Not toxic | Not toxic | Not toxic | Not toxic | Not toxic | inactive
5 | C[C@H]1[C@@H](O)O[C@@H]2O[C@@]3(C)CC[C@H]4[C@H](C)CC[C@@H]1[C@@]24OO3 [ARTENIMOL] | 0.004 | – | – | – | – | – | –
